From patent publication US10766894B2, “Aza-indazole compounds for use in tendon and/or ligament injuries” (NOVARTIS AG, priority 2016, dated 2020)
Read-outs that look alike come from different tables or passages of the source.

System: mouse immortalized TT-D6 Scx-luciferase (ScxL) cell line; transcriptional activation of Scleraxis (Scx) gene
Assay: SCX-LUC in vitro assay (scleraxis promoter luciferase reporter)
Assay type: cell-based
Details: Mus musculus
[1] = 96 h, Examples table, TT-D6 Scx-luciferase cells, 1 ng/ml TGFβ1, four days, read-out: Scx-Luc (EC50 μM)

Compound	EC50 [1]	EC50 (further compounds not numbered as examples, read-out: EC50 in the Scx-Luc assay)
Nc1n[nH]c2ccc(-c3ccc(S(=O)(=O)Nc4cccc(F)c4F)cc3Cl)nc12 [Example 81, 4-(3-amino-1H-pyrazolo[4,3-b]pyridin-5-yl)-3-chloro-N-(2,3-difluorophenyl)benzenesulfonamide]	0.203 µM	
Nc1n[nH]c2ccc(-c3ccc(NS(=O)(=O)c4ccc(OC(F)(F)F)cc4)cc3Cl)nc12 [Example 88, N-(4-(3-amino-1H-pyrazolo[4,3-b]pyridin-5-yl)-3-chlorophenyl)-4-(trifluoromethoxy)benzenesulfonamide]	2.43 µM	
Nc1n[nH]c2ccc(-c3ccc(NS(=O)(=O)c4ccc(F)c(F)c4)cc3Cl)nc12 [Example 10, N-(4-(3-amino-1H-pyrazolo[4,3-b]pyridin-5-yl)-3-chlorophenyl)-3,4-difluorobenzenesulfonamide]	0.64 µM	
Nc1n[nH]c2ccc(-c3ccc(S(=O)(=O)Nc4cccc(F)c4)cc3Cl)nc12 [Example 40]	0.416 µM	
Cc1cc(S(=O)(=O)N2CCC(CCO)C2)ccc1-c1ccc2[nH]nc(N)c2n1 (stereo not shown) [Example 83, 2-(1-((4-(3-amino-1H-pyrazolo[4,3-b]pyridin-5-yl)-3-methylphenyl)sulfonyl)pyrrolidin-3-yl)ethanol]	5.33 µM	
CC1CCC(NS(=O)(=O)c2ccc(-c3ccc4[nH]nc(N)c4n3)c(Cl)c2)CC1 (stereo not shown) [Example 36, 4-(3-amino-1H-pyrazolo[4,3-b]pyridin-5-yl)-3-chloro-N-(4-methylcyclohexyl)benzenesulfonamide]	0.414 µM	
Nc1n[nH]c2ccc(-c3ccc(S(=O)(=O)N[C@H]4C[C@@H](CO)C4)cc3Cl)nc12 [Example 85, 4-(3-amino-1H-pyrazolo[4,3-b]pyridin-5-yl)-3-chloro-N-((1s,3s)-3-(hydroxymethyl)cyclobutyl)benzenesulfonamide]	1.75 µM	
Nc1n[nH]c2ccc(-c3ccc(NS(=O)(=O)C4CCCCC4)cc3Cl)nc12 [Example 15, N-(4-(3-amino-1H-pyrazolo[4,3-b]pyridin-5-yl)-3-chlorophenyl)cyclohexanesulfonamide]	0.874 µM	
Cc1cccc(S(=O)(=O)Nc2ccc(-c3ccc4[nH]nc(N)c4n3)c(Cl)c2)c1 [Example 84, N-(4-(3-amino-1H-pyrazolo[4,3-b]pyridin-5-yl)-3-chlorophenyl)-3-methylbenzenesulfonamide]	0.045 µM	
Nc1n[nH]c2ccc(-c3ccc(S(=O)(=O)NC4CC(F)(F)C4)cc3Cl)nc12 [Example 4, 4-(3-amino-1H-pyrazolo[4,3-b]pyridin-5-yl)-3-chloro-N-(3,3-difluorocyclobutyl)benzenesulfonamide]	0.444 µM	
Cc1cc(S(=O)(=O)NC2CCCCC2)ccc1-c1ccc2[nH]nc(N)c2n1 [Example 39, 4-(3-amino-1H-pyrazolo[4,3-b]pyridin-5-yl)-N-cyclohexyl-3-methylbenzenesulfonamide]	0.473 µM	
Nc1n[nH]c2ccc(-c3ccc(S(=O)(=O)NCc4ccccc4)cc3Cl)nc12 [Example 73, 4-(3-amino-1H-pyrazolo[4,3-b]pyridin-5-yl)-N-benzyl-3-chlorobenzenesulfonamide]	3.53 µM	
Cc1ccc(S(=O)(=O)Nc2ccc(-c3ccc4[nH]nc(N)c4n3)c(Cl)c2)cc1 [Example 25, N-(4-(3-amino-1H-pyrazolo[4,3-b]pyridin-5-yl)-3-chlorophenyl)-4-methylbenzenesulfonamide]	0.611 µM	
CC1(C)CCC(NS(=O)(=O)c2ccc(-c3ccc4[nH]nc(N)c4n3)c(Cl)c2)CC1 [Example 24, 4-(3-amino-1H-pyrazolo[4,3-b]pyridin-5-yl)-3-chloro-N-(4,4-dimethylcyclohexyl)benzenesulfonamide]	1.59 µM	
Nc1n[nH]c2ccc(-c3ccc(S(=O)(=O)NC4(CO)CCCC4)cc3Cl)nc12 [Example 30, 4-(3-amino-1H-pyrazolo[4,3-b]pyridin-5-yl)-3-chloro-N-(1-(hydroxymethyl)cyclopentyl)benzenesulfonamide]	2.07 µM	
Nc1n[nH]c2ccc(-c3ccc(S(=O)(=O)N4CC(Oc5ccccc5)C4)cc3Cl)nc12 [Example 87, 5-(2-chloro-4-((3-phenoxyazetidin-1-yl)sulfonyl)phenyl)-1H-pyrazolo[4,3-b]pyridin-3-amine]	0.83 µM	
Nc1n[nH]c2ccc(-c3ccc(S(=O)(=O)NC4CCCC(O)C4)cc3Cl)nc12 (stereo not shown) [Example 44, 4-(3-amino-1H-pyrazolo[4,3-b]pyridin-5-yl)-3-chloro-N-(3-hydroxycyclohexyl)benzenesulfonamide]	4.12 µM	
Cc1cc(S(=O)(=O)N[C@H]2CC[C@@H](O)CC2)ccc1-c1ccc2[nH]nc(N)c2n1 [Example 69, 4-(3-amino-1H-pyrazolo[4,3-b]pyridin-5-yl)-N-((1s,4s)-4-hydroxycyclohexyl)-3-methylbenzenesulfonamide]	0.912 µM	
Cc1cc(S(=O)(=O)N[C@H]2C[C@@H](CO)C2)ccc1-c1ccc2[nH]nc(N)c2n1 [Example 47, 4-(3-amino-1H-pyrazolo[4,3-b]pyridin-5-yl)-N-((1s,3s)-3-(hydroxymethyl)cyclobutyl)-3-methylbenzenesulfonamide]	5.34 µM	

Compound	EC50 [1]	EC50 (further compounds not numbered as examples, read-out: EC50 in the Scx-Luc assay)
Nc1n[nH]c2ccc(-c3ccc(S(=O)(=O)N4CCC[C@H]4CO)cc3Cl)nc12 [(S)-(1-((4-(3-amino-1H-pyrazolo[4,3-b]pyridin-5-yl)-3-chlorophenyl)sulfonyl)pyrrolidin-2-yl)methanol]		> 10 µM
Nc1n[nH]c2ccc(-c3ccc(NS(=O)(=O)c4ccc5c(c4)NCCO5)cc3Cl)nc12 [Example 53, N-(4-(3-amino-1H-pyrazolo[4,3-b]pyridin-5-yl)-3-chlorophenyl)-3,4-dihydro-2H-benzo[b][1,4]oxazine-6-sulfonamide]	2.74 µM	
Nc1n[nH]c2ccc(-c3ccc(S(=O)(=O)N4CC[C@@H](O)C4)cc3Cl)nc12 [Example 57, (R)-1-((4-(3-amino-1H-pyrazolo[4,3-b]pyridin-5-yl)-3-chlorophenyl)sulfonyl)pyrrolidin-3-ol]	0.633 µM	
Cc1cc(S(=O)(=O)N[C@H]2CC[C@](C)(O)CC2)ccc1-c1ccc2[nH]nc(N)c2n1 [Example 80, 4-(3-amino-1H-pyrazolo[4,3-b]pyridin-5-yl)-N-((1r,4r)-4-hydroxy-4-methylcyclohexyl)-3-methylbenzenesulfonamide]	0.225 µM	
Nc1n[nH]c2ccc(-c3ccc(S(=O)(=O)Nc4cccc(Cl)c4)cc3Cl)nc12 [Example 90, 4-(3-amino-1H-pyrazolo[4,3-b]pyridin-5-yl)-3-chloro-N-(3-chlorophenyl)benzenesulfonamide]	2.54 µM	
Nc1n[nH]c2ccc(-c3ccc(S(=O)(=O)Nc4cccc(Cl)c4F)cc3Cl)nc12 [Example 52, 4-(3-amino-1H-pyrazolo[4,3-b]pyridin-5-yl)-3-chloro-N-(3-chloro-2-fluorophenyl)benzenesulfonamide]	1.1 µM	
Nc1n[nH]c2ccc(-c3ccc(NS(=O)(=O)c4ccc(Cl)c(F)c4)cc3Cl)nc12 [Example 13, N-(4-(3-amino-1H-pyrazolo[4,3-b]pyridin-5-yl)-3-chlorophenyl)-4-chloro-3-fluorobenzenesulfonamide]	1.34 µM	
Cc1cc(S(=O)(=O)N[C@H]2CC[C@H](O)CC2)ccc1-c1ccc2[nH]nc(N)c2n1 [Example 54, 4-(3-amino-1H-pyrazolo[4,3-b]pyridin-5-yl)-N-((1r,4r)-4-hydroxycyclohexyl)-3-methylbenzenesulfonamide]	1.13 µM	
Nc1n[nH]c2ccc(-c3ccc(S(=O)(=O)N4CC[C@H](O)C4)cc3Cl)nc12 [Example 71, (S)-1-((4-(3-amino-1H-pyrazolo[4,3-b]pyridin-5-yl)-3-chlorophenyl)sulfonyl)pyrrolidin-3-ol]	3.53 µM	
Nc1n[nH]c2ccc(-c3ccc(NS(=O)(=O)c4ccc(F)cc4)cc3Cl)nc12 [Example 6, N-(4-(3-amino-1H-pyrazolo[4,3-b]pyridin-5-yl)-3-chlorophenyl)-4-fluorobenzenesulfonamide]	0.58 µM	
CC(C)(C)NS(=O)(=O)c1ccc(-c2ccc3[nH]nc(N)c3n2)c(F)c1 [Example 75, 4-(3-amino-1H-pyrazolo[4,3-b]pyridin-5-yl)-N-tert-butyl-3-fluorobenzenesulfonamide]	1.52 µM	
Cc1cc(NS(=O)(=O)c2cccc(Cl)c2)ccc1-c1ccc2[nH]nc(N)c2n1 [Example 42, N-(4-(3-amino-1H-pyrazolo[4,3-b]pyridin-5-yl)-3-methylphenyl)-3-chlorobenzenesulfonamide]	2 µM	
Cc1cc(S(=O)(=O)N[C@H]2C[C@@H](O)C2)ccc1-c1ccc2[nH]nc(N)c2n1 [Example 64, 4-(3-amino-1H-pyrazolo[4,3-b]pyridin-5-yl)-N-((1s,3s)-3-hydroxycyclobutyl)-3-methylbenzenesulfonamide]	0.162 µM	
Cc1cc(S(=O)(=O)NC2CCCC(O)C2)ccc1-c1ccc2[nH]nc(N)c2n1 (stereo not shown) [Example 65, 4-(3-amino-1H-pyrazolo[4,3-b]pyridin-5-yl)-N-(3-hydroxycyclohexyl)-3-methylbenzenesulfonamide]	0.122 µM	
Nc1n[nH]c2ccc(-c3ccc(NS(=O)(=O)c4cccc(C(F)(F)F)c4)cc3Cl)nc12 [Example 62, N-(4-(3-amino-1H-pyrazolo[4,3-b]pyridin-5-yl)-3-chlorophenyl)-3-(trifluoromethyl)benzenesulfonamide]	1.3 µM	
Cc1cc(S(=O)(=O)N[C@@H]2CCC[C@@H]2O)ccc1-c1ccc2[nH]nc(N)c2n1 [Example 20, 4-(3-amino-1H-pyrazolo[4,3-b]pyridin-5-yl)-N-((1R,2S)-2-hydroxycyclopentyl)-3-methylbenzenesulfonamide]	0.797 µM	
Nc1n[nH]c2ccc(-c3ccc(NS(=O)(=O)C4CCCCC4O)cc3Cl)nc12 (stereo not shown) [Example 17, N-(4-(3-amino-1H-pyrazolo[4,3-b]pyridin-5-yl)-3-chlorophenyl)-2-hydroxycyclohexane-1-sulfonamide]	1.84 µM	
Cc1cc(S(=O)(=O)NC2(CO)CCCC2)ccc1-c1ccc2[nH]nc(N)c2n1 [Example 26, 4-(3-amino-1H-pyrazolo[4,3-b]pyridin-5-yl)-N-(1-(hydroxymethyl)cyclopentyl)-3-methylbenzenesulfonamide]	0.811 µM	
